Measured values taken from PubChem BioAssay AID179 (DTP/NCI, 2004).
pEC50, pIC50: −log10 of the molar value. “And” between values parts separate entries of the source, which are not always exact repeats. Equal entries are not always repeated. The source made the active and inactive calls.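 How the source made its calls: active means compounds giving half or more protection of infected cells from virus-caused growth loss, again on retest; inactive means the rest.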

Tested on: CEM cells HIV-1 protection, formazan growth assay
Assay: NCI AIDS Antiviral Assay
Conditions: for pIC50: measured here: growth of uninfected CEM cells
Outline: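 Screen of anti-HIV-1 activity in human CEM cells using a formazan-based growth measurement at five drug concentrations. Hits with 50% or greater protection were repeated, and confirmation required reproducible complete protection.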

Row | Structure (SMILES) | outcome | pEC50 | pIC50
1 | CC1(C)CCC2(C(=O)OC3OC(CO)C(O)C(O)C3O)CCC3(CO)C(=CCC4C5(C)CC(O)C(O)C(C)(C(=O)OC6OC(CO)C(O)C(O)C6O)C5CCC43C)C2C1 (centres undefined) | inactive |  | 
2 | COc1cc2c(cc1OCc1ccccc1)CNCC2 |  | < 3.10 | 3.84
3 | CCOP(=O)(O)Cc1c(Cl)c(Cl)c(CP(=O)(O)OCC)c(Cl)c1Cl |  | < 3.70 | 3.88
4 | N#CCCN(CCC#N)c1ccc(/C=C2\SC(=S)NC2=O)cc1 |  | < 3.70 | < 3.70
5 | COc1nc2nc[nH]c2c(=O)[nH]1 | inactive |  | 
6 | CC(=O)OCC(OC(C)=O)C(OC(C)=O)C(OC(C)=O)C(C=NN(C(C)=O)S(=O)(=O)c1ccc(/C=C2\NC(=O)N(C)C2=O)cc1)OC(C)=O (centres undefined) |  | < 3.70 | 5.14 and 4.95
7 | CCc1cccc(C(C)C)c1NC(=O)/C(=N\NC(N)=O)C(C(=O)OC)c1cnc2ccccc2n1 (centres undefined) | inactive |  | 
8 | Cc1csc2nc3[nH]ncc3c(=O)n12 |  | < 3.70 | 4.01
9 | COc1ccc(/C=C\c2cc(OC)c(OC)c(OC)c2)cc1O |  | < 3.67 | 7.16
10 | OCCC(Sc1ccccc1)Sc1ccccc1 | inactive |  | 
11 | CCCc1cc(=O)oc2c3c(c4c(c12)OC(C)(C)C=C4)OC(C)[C@H](C)[C@@H]3O (some centres undefined) |  | 5.30 | 4.86
12 | COc1cc(NCc2ccc3nc(N)nc(N)c3c2C)cc(OC)c1OC (tested in a mixture with another compound) |  | < 5.35 | 8.44
13 | O=C1C[C@@H]2[C@@H](CCC23CCCC3)N1 | inactive |  | 
14 | CCOC(=O)COc1c(C)cc(SSc2cc(C)c(OCC(=O)OCC)c(C)c2)cc1C |  | < 3.70 | 4.92
15 | C1CCCN(N2CCOCC2)CC1 |  | < 3.70 | < 3.70
16 | c1ccc([CH2][Sn]([CH2]c2ccccc2)([O]c2cccc3cccnc23)[O]c2cccc3cccnc23)cc1 | inactive |  | 
17 | CC(C)(C)COc1ccc2c(c1)-c1nc-2nc2[nH]c(nc3nc(nc4[nH]c(n1)c1ccc(OCC(C)(C)C)cc41)-c1cc(OCC(C)(C)C)ccc1-3)c1ccc(OCC(C)(C)C)cc21 |  | < 5.08 | < 5.08
18 | COC1(C)CNCC(C)(C)NC(=O)C(C)(OC)CNCC(C)(C)NC1=O (centres undefined) |  | < 4.09 | < 4.09
19 | O=C1c2ccccc2-c2nc3ccccc3nc21 |  | < 5.21 | < 5.21
20 | Cc1cc(C)n(C2OC(CO)C(O)C(O)C2O)c(=S)c1C#N (centres undefined) |  | < 3.70 | < 3.70
21 | COC(=O)C(/C(=N\O)C(=O)Nc1cccc(Cl)c1C)c1cnc2ccccc2n1 (centres undefined) |  | < 4.76 | < 4.76
22 | Cc1ccc2c(c1)SSc1ccc(C)cc1SS2 |  | < 3.70 | 3.96

Row | Structure (SMILES) | outcome | pEC50 | pIC50
23 | CCOC(=O)C1CC=CC(NC(=O)OC(C)(C)C)C1(c1ccccc1)[N+](=O)[O-] (centres undefined) | inactive |  | 
24 | CC(C)(C)c1cc(Cc2ccc(S(C)(=O)=O)cc2)c(O)c(C(C)(C)C)c1 | inactive |  | 
25 | C/C(CC(=O)Nc1ccc(C)c(C)c1)=N\NC(N)=O |  | < 3.16 | < 3.16
26 | COc1ccc(-c2n[nH]c3c2CCCc2ccccc2-3)cc1 |  | < 4.36 | 4.74
27 | C1=Cc2cccc3occ(c23)C=C1 |  | < 3.70 | 4.54
28 | CCCCCCCCCCCCCC(=O)O[C@@H]1[C@@H](C)[C@@]2(O)[C@@H](C=C(CO)C[C@]3(O)C(=O)C(C)=C[C@@H]23)[C@@H]2C(C)(C)[C@]12OC(C)=O | active |  | 
29 | CC1CC[C@]2(C(=O)O)CCC3(COC(=O)/C=C\c4ccc(O)cc4)C(=CCC4[C@@]5(C)CC[C@H](O)C(C)(C)C5CC[C@]43C)[C@@H]2[C@H]1C (some centres undefined) |  | < 4.38 | 4.96
30 | COc1ccc(C(=O)C(c2ccc(OC)cc2)C2OC(=O)C(Cl)=C2Cl)cc1 (centres undefined) |  | < 4.75 | < 4.75
31 | Nc1ccc(/C=C\c2ccc(N)cc2S(=O)(=O)O)c(S(=O)(=O)O)c1 |  | < 3.70 | < 3.70
32 | CC12CCC3C(CCC4=CC(=O)C=CC43C)C1CC(O)C(=O)O2 (centres undefined) |  | < 3.70 | < 3.70
33 | Cn1c2ccccc2n2c(=O)c3cc([N+](=O)[O-])ccc3c(C#N)c12 |  | < 4.00 | < 4.00
34 | CC1=NOC(=O)C12CC2 |  | < 3.70 | < 3.70
35 | CCOP(=O)(O)C(Nc1ccc(N=Nc2ccccc2)cc1)c1ccc(C(Nc2ccc(N=Nc3ccccc3)cc2)P(=O)(O)OCC)cc1 (centres undefined) |  | < 4.09 | 4.52
36 | OCCCNc1ccnc2cc(Cl)ccc12 |  | < 3.04 | 4.09
37 | O=C1CSC(c2c[nH]c3ccccc23)N1c1ccccc1[N+](=O)[O-] (centres undefined) |  | < 3.41 | < 3.41
38 | CCOC(=O)C1=C(O)c2c(sc(C)c2C)N(S(=O)(=O)c2ccc(C)cc2)CC1 |  | < 3.70 | 4.28
39 | O=C1c2ccccc2CC1C1(O)C(=O)Nc2c(Cl)cc(Cl)cc21 (centres undefined) |  | < 3.99 | < 3.99
40 | CCN(CC)CCCNc1nnc2c(=O)n(C)c(=O)n(C)c2n1 |  | < 3.70 | < 3.70
41 | CC1=CC2(O)OC3(CC2=C(C)C)C(C)CCC13 (centres undefined) |  | < 3.70 | < 3.70
42 | CC(=O)Oc1cccc2c(/C=N/NC(N)=S)ncc(C)c12 |  | < 3.70 | 5.91
43 | CCOC(F)(F)/C=C/c1ccccc1 | inactive |  | 
44 | CCCCCCCCCCC(c1cc(Cl)c(O)c(C(=O)O)c1)c1cc(Cl)c(O)c(C(=O)O)c1 |  | < 2.83 | 4.10

Row | Structure (SMILES) | outcome | pEC50 | pIC50
45 | Cc1cc(N(CCC#N)CCC#N)ccc1/C(N=Nc1ccc([N+](=O)[O-])cc1)=N\NC(=O)c1cc(Cl)ccc1O |  | < 3.70 | 4.64
46 | Cc1ccc([P+](Cc2ccccc2)(c2ccccc2)c2cccc3ccccc23)cc1 (centres undefined) |  | < 3.70 | 6.26
47 | C/C(CC(=O)Nc1ccc(NC(=O)/C(C)=N/NS(=O)(=O)c2ccc(C)cc2)cc1)=N\NS(=O)(=O)c1ccc(C)cc1 |  | < 3.80 | < 3.80
48 | Clc1cc(N/N=C(\c2ccccc2)c2ccccn2)ncn1 |  | < 6.70 | 7.20
49 | O=C1CSSCC(=O)NCCCN1 |  | < 4.34 | < 4.34
50 | CC(C)(C)NP(=O)(NC(C)(C)C)NC(C)(C)C |  | < 3.70 | 3.97
51 | CC1CCc2c(sc3ncnc(N/N=C/c4ccc(Cl)cc4)c23)C1 (centres undefined) |  | < 4.84 | < 4.84
52 | COc1ccc(CCNC(=O)/C(=C\c2ccc3c(c2)OCO3)NC(=O)c2ccccc2)cc1OC |  | < 3.70 | < 3.70
53 | COC1C(OC(N)=O)C(O)C(Oc2ccc3c(O)c(NC(=O)c4ccc(O)c(CC=C(C)C)c4)c(=O)oc3c2C)OC1(C)C (centres undefined) |  | < 3.41 | 4.10
54 | Nc1sccc1S(=O)(=O)c1ccsc1N |  | < 3.70 | 4.06
55 | O=C(CCc1ccccc1)ON1C(=S)C(c2ccccc2)(c2ccccc2)N=C1Sc1ccccc1 |  | < 3.70 | 4.59
56 | NC(N)=N/N=C/c1c(-c2ccc(Cl)cc2)nc2sc(Cl)cn12 |  | < 4.70 | 5.97
57 | CCN(CC)CCNC(=O)c1nn(-c2ccc(C)cc2)c2c1N(C)S(=O)(=O)c1ccccc1-2 |  | < 4.11 | 4.25
58 | O=C(/C=C/C1C(=O)NC(=O)NC1=O)CC(=O)C(=O)Nc1cc(Cl)c(Cl)cc1Cl |  | < 3.68 | < 3.68
59 | Nc1cc2nc3ccccc3sc-2cc1=O |  | 5.47 | 4.22
60 | O=C(Nc1ccc(Cl)c(Cl)c1)OCCN1c2ccccc2Sc2ccccc21 |  | < 3.70 | 4.42
61 | O=C(Nc1ccc(Cl)c(Cl)c1)n1ncc2ccc([N+](=O)[O-])cc21 |  | < 3.70 | 3.77
62 | COc1cc2c(OC)c(-c3c(C)cc4c(C(C)C)c(OC)c(OC)cc4c3OC)c(C)cc2c(C(C)C)c1OC | inactive |  | 
63 | S=c1nc(COc2ccc(Cl)cc2)[nH][nH]1 |  | < 2.99 | < 2.99
64 | COc1ccc(O)c2c(=O)ccccc12 | inactive |  | 
65 | COc1ccc(C2=Nc3ccccc3N=C(SC)C2)cc1 |  | 5.62 | 4.75
66 | CCOC(=O)/C(C#N)=C\Sc1ccccc1 | inactive |  | 

Row | Structure (SMILES) | outcome | pEC50 | pIC50
67 | O=C(NCc1ccccc1)c1cc2cc(O)c(O)cc2cn1 |  | < 3.70 | 5.29 and < 5.08
68 | CC1(C)CNC(=O)C2=C(O1)C(=O)OC2 |  | < 2.90 | < 2.90
69 | CN1CCC2c3c([nH]c4ccccc34)C(C)(C)OC2C1 (centres undefined) |  | < 3.70 | < 3.70
70 | C/C(Cl)=N\OC(=O)Nc1ccc(C)cc1 |  | < 3.70 | 4.73
71 | COc1cc(C(=O)Oc2ccc3c(c2)OCO3)cc(OC)c1OC |  | < 3.70 | < 3.70
72 | CCCCCc1cc(OC(=O)c2c(O)cc(OC)cc2CCCCC)cc(O)c1C(=O)O |  | < 3.53 | 4.53
73 | Cc1ccc(S(=O)(=O)n2cncc2CO)cc1 |  | < 3.70 | < 3.70
74 | CCN(CC)c1ccc(/C=C2\CCc3ccc([N+](=O)[O-])cc3C2=O)cc1 |  | < 4.70 | 5.97
75 | Cc1cccc2oc3c(c(=O)c12)CC(O)C(C)(C)O3 (centres undefined) |  | < 3.70 | 4.10
76 | N#Cc1c(-c2ccccc2)c(C#N)c(=S)n(C2OCC(O)C(O)C2O)c1N (centres undefined) |  | < 3.70 | 3.71 and < 3.70
77 | COC(=O)/C=C/c1cc(OC)c(OC)c(OC)c1 |  | < 3.60 | 3.77
78 | CN(C)CCNC(=O)c1cccc(NC(=O)c2ccccc2)c1[N+](=O)[O-] |  | < 3.70 | < 3.70
79 | C=C(C)CCC(=O)[C@](C)(O)[C@H]1[C@H](O)C[C@@]2(C)[C@@H]3CCc4c(cc(OC5OC(CO)C(O)C(O)C5O)c(O)c4C)C3(C)C(=O)C[C@]12C (some centres undefined) |  | < 3.70 | < 3.70
80 | CCCCCCOC(=O)Nc1nnc(SSC2=NN=CC2NC(=O)OCCCCCC)s1 (centres undefined) |  | < 3.70 | 4.71
81 | CN1C(=O)/C(=N/N(c2ccccc2)c2ccccc2)c2ccccc21 |  | < 3.70 | < 3.70
82 | c1csc(-c2ccsc2-c2cccs2)c1 |  | < 3.70 | 4.01
83 | O=C(O)[C@@H]1CSCN1C(=O)[C@@H]1CCC(=S)N1 |  | < 3.70 | < 3.70
84 | COc1ccc2c(c1)CCC(OS(=O)(=O)CC13CCC(CC1=O)C3(C)C)C2=O (centres undefined) |  | < 3.70 | 4.98
85 | O=c1c2ccccc2n2c(=S)[nH]nc2n1-c1ccccc1 |  | < 3.70 | < 3.70
86 | CCN(CC)c1ccc2cc(C(=O)Nc3nc(C45CC6CC(CC(C6)C4)C5)cs3)c(=O)oc2c1 |  | < 3.70 | < 3.70
